Assay results published in BindingDB's records for doi:10.1021/jm9800245 (F. Hoffmann-La Roche, 1998).
Counter-ions that a name gives are not always drawn.

Experiments:
[1] = target: Beta-lactamase AmpC (Pseudomonas aeruginosa); assay: Inhibition of beta-lactamase of Pseudomonas aeruginosa 18 SH (class C)
[2] = Inhibition of beta-lactamase of Escherichia coli TEM-3 […]

CC(C)(C)OC(=O)N1CC[C@@H]2C1C(=O)N2S(=O)(=O)O (stereo partly drawn) [(2S,5R)-7-Oxo-6-sulfo-2,6-diaza-bicyclo[3.2.0]heptane-2-carboxylic acid tert-butyl ester] showed an IC50 [1] of 1.5 µM and an IC50 [2] greater than 1000 µM.

Work on NC(=O)c1ccc(NC(=O)N2CCC3C2C(=O)N3OS(=O)(=O)O)cc1 (configuration not stated) [sodium salt-Sulfuric acid mono-[2-(4-carbamoyl-phenylcarbamoyl)-7-oxo-2,6-diaza-bicyclo[3.2.0]hept-6-yl] ester] yielded an IC50 [1] of 0.026 µM.

Work on CC(C)(C)OC(=O)N1CCC2C1C(=O)N2OS(=O)(=O)O (configuration not stated) [sodium salt-tert-butyl 7-oxo-6-(sulfooxy)-2,6-diazabicyclo[3.2.0]heptane-2-carboxylate] yielded an IC50 [1] of 0.028 µM and an IC50 [2] of 0.165 µM.

In the case of NC(=O)c1ccc(NC(=O)N2CC[C@@H]3C2C(=O)N3S(=O)(=O)O)cc1 (stereo partly drawn) [(2S,5R)-2-(4-Carbamoyl-phenylcarbamoyl)-7-oxo-2,6-diaza-bicyclo[3.2.0]heptane-6-sulfonic acid], the IC50 [1] is reported as 0.217 µM and the IC50 [2] is reported as 9000 µM.
